Results: patent publication US20260021122A1, “CANNABINOIDS AND USES THEREOF IN TREATMENT OF A DISEASE” (TECHNION RESEARCH & DEVELOPMENT FOUNDATION LIMITED, priority 2022, published 2026)

Legend:
Assay type in all cases: cell-based, mice
[1] = system: CD8+ T-cells; assay: BM-MDSCs CD8+ T-cell co-culture suppression assay
Description: Generated bone marrow-MDSC (BM-MDSCs) were treated with conditioned media for 24 hours, then sorted into MO-MDSC and PMN-MDSC subsets. Concurrently, CD8+ T-cells were isolated from the spleens of healthy female WT C57BL/6 mice (8-12-weck-old). To isolate CD8+ T-cells, spleens were mechanically disintegrated and filtered through a 70 um filter (Alex Red Ltd., Cat #SO SCS702), the red blood cells were lysed with the red blood lysis buffer (Biological industries, Cat #01-888-1B). Then, CD8+ T-cells were isolated using the EasySep Mouse CD8+T-cell isolation kit (Stemcell Technologies, Cat # 19853) according to the manufacturer's protocol. The isolation purity was measured by staining cells before and after isolation with CD8-PECY7 (BioLegend, Cat #100722, Clone 53-6.7) by flow cytometry.
Post-sorted MDSC subpopulations were co-cultured in complete RPMI with CD8+ T-cells that are activated with Dynabeads® Mouse T-Activator CD3/CD28 kit (Cat # 11456D; 12.5 μl/1×10^6 cells). After 48 hours, the activation beads were removed and cells were incubated with eBioscience Cell Stimulation Cocktail (Invitrogen, Cat #00-4970-93) for 3 hours and then also with BD GolgiStop™ Protein Transport Inhibitor (BD Biosciences, Cat #51-2092KZ) for the detection of IFN-γ. Intracellular staining of IFN-γ in CD8+ T-cells was achieved by using the BD Cytofix/Cytoperm™ Kit (BD Biosciences, Cat #554714) as stated in the manufacturer's instructions and then staining with IFN-γ-FITC (BioLegend, Cat #505806, Clone XMG1.2) and GranzymeB-FITC (BioLegend, Cat #372206, clone QA16A02).

[2] = system: BM-MDSCs; assay: BM-MDSCs treated with conditioned media from treated B16F10 cells: myeloid subpopulation frequencies and F4/80; settings: for reduction in the F4/80 MFI in Ly6C+ cells compared to DMSO: CM from treated B16F10 cells
Description: (§1) Bone-marrow-derived cells (BMDCs) were isolated from the fibula and tibia bones of healthy female WT C57BL/6 mice (8-12-week-old). Red blood cells were removed by using red blood lysis buffer (Biological industries, Cat #01-888-1B). Remaining cells were counted and 1×10^6 cells were seeded in complete RPMI (Sigma, Cat #R8758) containing 10% FBS (Sigma, Cat #F7524), 1% L-Glutamine (Sartorius, Cat #03-020-1B), 1% Penicillin/[…] (Sartorius, Cat #03-031-1B), 1% MEM-Eagle (Sartorius, Cat #01-340-1B), 2.5% HEPES (Sartorius, Cat #03-025-1B) and 1% sodium pyruvate (Sartorius, Cat #03-042-1B) and supplemented with 20 ng/ml of GM-CSF and IL-6 (R&D systems, 415-ML and 406-ML). Cells were incubated at 37° C. and 5% CO2 for 4 days and then treated with conditioned media, which was the media collected from B16F10 cells treated with either DMSO, CBG, or the high-CBG extract 3704 as indicated.
(§2) To differentiate the subpopulation of myeloid cells, BMDCs and myeloid cells from tumors were stained for the extracellular makers Ly6C-BV421 (BioLegend, Clone HK1.4; Cat #128032) or Ly6C-FITC (BioLegend, Cat #128096, Clone HK1.4), Ly6G-APC (BioLegend, Clone 1A8; Cat #127614), Ly6G-BV421 (BioLegend, Cat #127627, clone 1A8), PECy7-F4/80 (BioLegend, Clone BM8 Cat #123113), BV605-CD86 (BioLegend, Clone GL-1, Cat #105037), APC-CD206 (Biolegend, Clone CO68C2, Cat #141708) and BV711-CD45 (BioLegend, Clone 30F11, Cat #103147). Cells from tumors were also stained with PE-CD3+ (BioLegend, Clone 17A2, Cat #100206) to identify the overall T-cell population. To characterize the cells in the subpopulations, cells were fixed and permeabilized with the Intracellular Fixation and Permeabilization Buffer Set (eBioscience Cat #88-8824-00) and stained with FITC-iNOS (Thermo, Clone CXNFT, Cat #53592082) or FITC-Arginase-1 (Thermo, Clone AlexF5, Cat #53-3697-82). These cells were also stained with Fixable viability Dye (FVD)-eflour 780 (Thermo, Cat #65086514) to exclude dead cells.

[3] = system: BM-MDSCs; assay: iNOS and Arg-1 expression by BM-MDSC subpopulations (flow cytometry, western blot)
Description: as §1, §2
To analyze the two subpopulations of BM-MDSCs, the cells were stained with Ly6C-BV421 and Ly6G-APC and sorted into MO-MDSC or PMN-MDSC using the BD FACSAria III Cell Sorter instrument (BD Biosciences). Directly after sorting, the two separate subpopulations were co-cultured with CD8+ T-cells or lysed and further analyzed via western blot.
B16F10 cells, and sorted MO-MDSC and PMN-MDSC achieved as described, were lysed in RIPA buffer (Sigma, Cat #R0278) supplemented with Protease/Phosphatase Inhibitor Cocktail (Cell signaling, Cat #5872S) on ice for 20 minutes. Total protein concentrations were measured using the detergent-compatible protein assay (Bio-Rad, Cat #5000113 and 5000114) and equal amounts were loaded onto a 4%-20% gradient gel (Invitrogen, Cat #XPO4202) and semidry transferred into a nitrocellulose membrane (Bio-Rad, Cat #1704159). The membrane was incubated with the primary antibodies CSF-1 (Santa Cruz; Clone D-4; #sc-365779), iNOS (Abcam; Clone #ab15323) or GAPDH (Cell Signaling Technology, Cat #14C10). Secondary antibodies used in this study were HRP-conjugated and the membranes were developed with the ECL detection kit (Millipore, Cat #WBLUR).

[4] = MO-MDSCs exposed to CM of treated B16F10, 48 hours co-incubation
[5] = CM of treated B16F10 vs CM of DMSO-treated B16F10, 24 hours, flow cytometry

SMILES: CCCCCc1cc(O)c(C/C=C(\C)CCC=C(C)C)c(O)c1 [CBG, cannabigerol]
- CD8+ IFN-γ expression, co-culture with MO-MDSCs [1, 4]: restoration of CD8+ IFN-γ expression in a dose-dependent manner
- GrzB expression in CD8+ T-cells co-cultured with MO-MDSCs [1, 4]: trend of restored GrzB expression
- GrzB expression in CD8+ T-cells co-cultured with PMN-MDSCs ([1]; PMN-MDSC exposed to CM of treated B16F10, 48 hours co-incubation): trend of reduced GrzB expression
- CD8+ IFN-γ expression, co-culture with PMN-MDSCs ([1]; PMN-MDSCs exposed to CM of treated B16F10, 48 hours co-incubation): no significant changes with either of the treatments
- overall percentage of monocytes (Ly6C+/Ly6G− cells) ([2]; BM-MDSCs treated 24 hours with CM from B16F10 treated with CBG 1.5 μg/ml or 3704 2 μg/ml): did not change
- PMN-MDSC frequencies (Ly6C+/Ly6G+) ([2]; CM from B16F10 treated with CBG 1.5 μg/ml or 3704 2 μg/ml): not affected by any treatment
- MO-MDSC (Ly6Chigh/Ly6G−) percentages ([2]; CM from B16F10 treated with CBG 1.5 μg/ml or 3704 2 μg/ml, compared to B16F10 treated with DMSO): significant decrease in MO-MDSC percentages
- reduction in the F4/80 MFI in Ly6C+ cells compared to DMSO ([2]; 24 hours): trend was apparent after 24 hours
- reduction in the F4/80 MFI in Ly6C+ cells compared to DMSO ([2]; 48 hours): statistically significant after 48 hours
- iNOS expression by western blot in sorted subsets ([3]; CM from treated B16F10 vs CM of DMSO-treated B16F10, sorted MO-MDSC and PMN-MDSC): reduction of iNOS expression specifically in MO-MDSCs
- iNOS expression by MO-MDSC [3, 5]: significantly decreased iNOS expression
- iNOS expression by PMN-MDSC [3, 5]: did not detect a significant decrease in iNOS expression
- Arg-1 expression in MO-MDSCs and PMN-MDSCs ([3]; CM of treated B16F10 vs CM of DMSO-treated B16F10, 24 hours, flow cytometry, neither subpopulation): did not detect a significant difference in Arg-1 expression
- iNOS expression in directly treated BM-MDSCs (each subpopulation) ([3]; medium from untreated B16F10 together with 2 g/ml CBG or 6 μg/ml 3704 for 24 hours, vs DMSO): did not detect any significant differences
